{"source": "patent US20220304992A1", "about": "“METHODS OF REJUVENATING AGED TISSUE BY INHIBITING 15-HYDROXYPROSTAGLANDIN DEHYDROGENASE (15-PGDH)” (The Board of Trustees of the Leland Stanford Junior …, priority 2019, published 2022)", "key": {"[1]": {"biological_target": "T1, 15-PGDH (Mus musculus, UniProt Q8VCC1)", "T1 construct": "15-PGDH specific enzymatic activity assayed in muscle tissues of vehicle and SW treated aged muscles; from tissue; host or cells: skeletal muscle lysates of aged C57BL/6 mice", "T1 sequence (Q8VCC1 whole entry)": "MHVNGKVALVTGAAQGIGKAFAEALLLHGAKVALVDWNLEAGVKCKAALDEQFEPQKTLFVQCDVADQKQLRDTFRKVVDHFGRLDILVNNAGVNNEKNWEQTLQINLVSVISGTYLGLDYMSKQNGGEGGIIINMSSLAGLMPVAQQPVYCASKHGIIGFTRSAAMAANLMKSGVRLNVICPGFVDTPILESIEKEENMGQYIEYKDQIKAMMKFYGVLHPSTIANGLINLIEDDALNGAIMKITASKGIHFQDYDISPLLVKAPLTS", "assay": "15-PGDH kinetic assay (PicoProbe kit) in muscle lysates of treated mice", "format": "in vivo", "settings": "aged mice, daily i.p., 1 month", "description": "15-PGDH activity was analyzed in tissue lysates using the BioVision PicoProbe 15-PGDH Activity Assay Kit (Cat # K562) according to the protocol of the manufacturer. Briefly, tissues were isolated and snap frozen in liquid nitrogen."}, "[2]": {"tested_on": "PGE2 and PGD2 levels in muscle tissue", "assay": "LC-MS/MS of prostaglandins in muscle tissue lysates", "format": "in vivo, mouse", "settings": "aged mice, daily i.p., 1 month", "experimental": "All prostaglandin standards-PGF2a; PGE2; PGD2; 15-keto PGE2; 13,14-dihydro 15-keto PGE2; PGE2-D4; and PGF2α-D9—were purchased from Cayman Chemical. For the PGE2-D4 internal standard, positions 3 and 4 were labeled with a total of four deuterium atoms. For PGF2α-D9, positions 17, 18, 19 and 20 were labeled with a total of nine deuterium atoms.\nAnalyte stock solutions (5 mg/mL) were prepared in DMSO. These stock solutions were serially diluted with acetonitrile/water (1:1 v/v) to obtain a series of standard working solutions, which were used to generate the calibration curve. […]\nSolid tissues were harvested, weighed, and snap-frozen with liquid nitrogen. […] The dry residue was reconstituted in 100 μL acetonitrile/10 mM ammonium acetate (2:8 v/v) and analyzed by LC-MS/MS.\nSince many prostaglandins are positional isomers with identical masses and have similar fragmentation patterns, chromatographic separation is critical. Two SRM transitions-one quantifier and one qualifier-were carefully selected for each analyte. […]\nQuantitative analysis was done using LabSolutions LCMS (Shimadzu). An internal standard method was used for quantification: PGE2-D4 was used as an internal standard for quantification of PGE2, 15-keto PGE2, and 13, 14-dihydro 15-keto PGE2. […]"}}, "note": "“Also recorded” adds a separate entry of the source."}
{"compound": "CCCC[S+]([O-])c1sc2nc(-c3cccs3)cc(-c3ccccc3)c2c1N", "note": "(stereo not drawn) [SW033291, 2-(butylsulfinyl)-4-phenyl-6-(thiophen-2-yl)thieno[2,3-b]pyridin-3-amine]", "values": [{"measurement": "15-PGDH specific activity in muscle", "setting": "[1]", "value": "significantly reduced"}, {"measurement": "PGD2 levels in muscle", "setting": "[2]", "value": "increase"}, {"measurement": "PGE2 levels in muscle", "setting": "[2]; listed as SW", "value": "elevated; also recorded: increase"}]}
